The test deals with T1, PDK1 50-360 [CT-PIF] (Homo sapiens, UniProt O15530).
T1 construct: comprising residues 50-360 joined to the last 48 aminoacids from PRK2; His-tag (pFastbac-HT) (N); made in house; host or cells: insect cells (pFastbac-HT baculovirus system); the other entry of the earlier key: PKN2 (Q16513, Serine/threonine-protein kinase N2)
T1 sequence (O15530 with tags, fused parts or gaps): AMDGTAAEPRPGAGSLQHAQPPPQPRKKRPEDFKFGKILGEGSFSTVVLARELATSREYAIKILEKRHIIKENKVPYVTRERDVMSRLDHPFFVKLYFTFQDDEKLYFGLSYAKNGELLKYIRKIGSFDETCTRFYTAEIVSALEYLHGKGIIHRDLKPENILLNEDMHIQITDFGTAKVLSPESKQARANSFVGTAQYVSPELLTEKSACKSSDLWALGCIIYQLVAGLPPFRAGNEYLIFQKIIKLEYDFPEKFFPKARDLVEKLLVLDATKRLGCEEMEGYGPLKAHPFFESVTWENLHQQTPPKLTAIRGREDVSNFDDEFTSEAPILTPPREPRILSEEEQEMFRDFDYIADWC
Briefly: PDK1 activity assay with T308tide. The test is classed as biochemical. As to conditions: for AC50: PDK1 50-360 [CT-PIF]; for effect on specific activity of chimera (in words): PDK1 50-360[CT-PIF] chimera. From the text: We generated a PDK1 chimera consisting of the catalytic domain of PDK1 comprising residues 50-360 joined to the last 48 aminoacids from PRK2, which include the sequence of PIFtide (PDK1 50-360[CT-PIF]). PIFtide binds with high affinity to PDK1. Therefore, we expected that the HM/PIF-pocket in this protein would be strongly bound to the C-terminus of PRK2. In this scenario, the specific activity of the PDK1 50-360[CT-PIF] chimera would not be affected by compounds which otherwise would bind to the PDK1 50-360 HM/PIF-pocket. The PDK1 50-360[CT-PIF] chimera had 1.5-fold higher specific activity than the PDK1 catalytic domain alone. Furthermore, the activity of PDK1 50-360[CT-PIF] chimera was not affected by PIFtide at concentrations that activated the PDK1 50-360 protein (FIG. 2G). Finally, PDK1 50-360[CT-PIF] specific activity was not affected by compound 1, further supporting the notion that PIFtide and compound 1 targeted an overlapping site in the catalytic domain of PDK1.
For the spectrofluorometer assay, the PDK1 protein used was the catalytic domain of PDK1 (50-359) produced in SF9 insect cells using baculovirus expression technology (Invitrogen). PDK1 was cloned in pFastbac-HT plasmid (NcoI-KpnI sites) taking advantage of an endogenous NcoI site in the PDK1 DNA sequence. The codon corresponding to aminoacid 360 was replaced by a stop codon. […]
Protein kinase activity tests were performed essentially as previously described (Balendran et al., 2000; Biondi et al., 2000; Biondi et al., 2001). Substrates used were either MBP (for PKCζ or polypeptides (Crosstide for PKB, S6K, SGK and PRK2; T308tide for PDK1, and Kemptide for PKA). PKA (Sigma) was measured in the presence of 100 μM cAMP. Alternatively, assays were performed in a 96 well format, aliquots spotted on p81 phosphocellulose papers (Whatmann), washed in 0.01% phosphoric acid, dried, and then exposed and analysed using Phospholmager technology (Storm, Molecular Dynamics). Activity measurements were performed in duplicates with less than 10% difference between duplicate pairs. Experiments were repeated at least twice, although most of the experiments were repeated multiple times, with similar results.
PDK1 activity assay was performed in a 20 μl mix containing 50 mM Tris-HCl pH 7.5, 0.05 mg/ml BSA, 0.1% β-mercaptoethanol, 10 mM MgCl2, 100 μM [γ^32P]ATP (5-50 cpm/pmol), 0.003% Brij, 150 ng PDK1, and T308tide (from 0.05 to 1 mM). PDK1 specific activity was approximately 5 U/mg (when measured at 1 mM T308tide). […]
PDK1 activity was measured at room temperature using a polypeptide substrate derived from the activation loop phosphorylation site of PKB, T308tide (0.1 mM). […]

Ends that are not written are not given here.

Consider `O=C(O)CSC(CC(=O)c1ccc(Cl)cc1)c1ccccc1` (stereo not shown) [Compound 1], for which the AC50 entry is listed as “No Effect” and the “effect on specific activity of chimera (in words)” value is given as “not affected”.
The like results for “REPRILSEEEQEMFRDFDYIADWC [PIFtide, reference compound]” were, in that order, “No Effect” and “not affected”.

For the origin of these results see US20110152166A1, “METHOD OF MODULATION OF PROTEIN PHOSPHORYLATION-DEPENDENT CONFORMATIONAL TRANSITIONS WITH LOW MOLECULAR WEIGHT COMPOUNDS” (priority 2006, published 2011).
